{"source": "patent US6207596A", "about": "“Disposable premoistened wipe containing an antimicrobial protease inhibitor” (The Procter & Gamble Company, priority 1998, dated 2001)", "key": {"[1]": {"test_system": "Staphylococcus aureus", "assay": "Method 3: antimicrobial activity (NCCLS dilution, MIC), S. aureus", "assay_type": "cell-based, Staphylococcus aureus ATCC 25923", "conditions": "ATCC25923, ATCC 25923, diluted with distilled water, 24 hours at 37° C., read-out: Minimal Inhibitory Concentration", "procedure": "(§1) 3. Method for Determining the Activity of Antimicrobial Agents:\n(§2) This method is used to determine the antimicrobial activity of antimicrobial agents. The antimicrobial activity of an antimicrobial agent is tested according to the National Committee for Clinical Laboratory Standards (\"NCCLS\") Methods. The NCCLS Dilution Antimicrobial Susceptibility Test for Bacteria Which Grow Aerobically is used (i.e.; NCCLS Document M7-A2, 1990).\n(§3) Serial two-fold dilutions of the antimicrobial agent are made in trypticase soy broth in a microtiter plate (in the case of hexamidine diisethionate a 1000 μM starting concentration is recommended). Microorganism inocula are prepared by harvesting colonies from agar plates into saline and adjusting the optical density of the solution to be equivalent to the 0.5 McFarland standard. Each microorganism suspension is diluted 1:10 and 10 microliters of the suspension added to each microtiter well.\n(§4) The microtiter plates are sealed and incubated for 24 hours at 37° C. The highest dilution of the antimicrobial agent preventing growth is recorded as the minimal inhibitory concentration (\"MIC\").\n(§5) Referring to Table II, the antimicrobial activity of hexamidine diisethionate on three different microorganisms is shown. For purposes of this example, hexamidine diisethionate was diluted with distilled water and evaluated according to Method 3 above. […]"}, "[2]": {"test_system": "Candida albicans", "assay": "Method 3: antimicrobial activity (NCCLS dilution, MIC), C. albicans", "assay_type": "cell-based, Candida albicans ATCC 10231", "conditions": "ATCC10231, ATCC 10231, diluted with distilled water, 24 hours at 37° C., read-out: Minimal Inhibitory Concentration", "procedure": "as §1, §2, §3, §4, §5"}, "[3]": {"test_system": "fecal trypsin", "assay": "Method 2a: Efficacy of Protease Inhibitors in Fecal Trypsin", "assay_type": "biochemical", "conditions": "pooled infant fecal suspension; 25° C., 405 nm corrected by 490 nm", "procedure": "(§6) Standard in vitro assays for determining enzyme activity, and inhibition of enzyme activity, are well known. The reagents used to conduct these tests are generally commercially available. In general, a simple system comprises an enzyme-specific substrate which, when hydrolyzed by the enzyme, produces a colored product. The activity of the enzyme is measured spectrophotometrically as the degree of development of the colored product (i.e.; the rate of color change) over a predetermined time period.\n(§7) The inhibitory activity of an enzyme inhibitor may be calculated according to the following equation: […]\n(§8) In the methods, v and vi are measured as the change in absorbency (optical density, OD) at a given wavelength/time (e.g., minutes). […]\nSerial dilutions of a protease inhibitor are made using distilled water. A 0.7 ml aliquot of each dilution of protease inhibitor to be evaluated is added to a microcuvette. […]\nA volume of 0.1 mL of fecal suspension is added to the microcuvette and mixed. The absorbency of the mixture at 490 nm is measured with the spectrophotometer. […] The absorbency of the mixture at 405 nm is then measured with the spectrophotometer over a period of 5 minutes at 25° C. These […] in order to correct for any background interference. […]"}, "[4]": {"test_system": "purified trypsin (human pancreatic trypsin)", "assay": "Method 1a: Efficacy of Protease Inhibitors in Purified Trypsin", "assay_type": "biochemical", "conditions": "25° C., 405 nm; inhibitor diluted in distilled water", "procedure": "as §6, §7, §8\nSerial dilutions of a protease inhibitor are made using distilled water. A 50 μl aliquot of each serial dilution of protease inhibitor to be evaluated is added to a microcuvette containing 0.020 ml of trypsin buffer and 0.105 ml of purified trypsin. […]\nAfter incubating, 0.025 ml of the 4 mM N-carbobenzyloxy-arginine-p-nitroanilide substrate solution is added to the microcuvette. […] The absorbency of the mixture is then measured at a wavelength of 405 nm over a period of 10 minutes at a temperature of 25° C. […]"}, "[5]": {"test_system": "Escherichia coli", "assay": "Method 3: antimicrobial activity (NCCLS dilution, MIC), E. coli", "assay_type": "cell-based", "conditions": "ATCC25922, ATCC 25922, diluted with distilled water, 24 hours at 37° C., read-out: Minimal Inhibitory Concentration", "procedure": "as §1, §2, §3, §4, §5"}}}
{"smiles": "N=C(N)c1ccc(OCCCCCCOc2ccc(C(=N)N)cc2)cc1", "note": "[hexamidine diisethionate]", "values": [{"measurement": "MIC", "setting": "[1]", "value": 3, "unit": "µM"}, {"measurement": "MIC", "setting": "[2]", "value": 13, "unit": "µM"}, {"measurement": "IC50", "setting": "[3]", "value": 2300, "unit": "nM"}, {"measurement": "IC50", "setting": "[4]", "value": 2500, "unit": "nM"}, {"measurement": "MIC", "setting": "[5]", "value": 53, "unit": "µM"}]}
